Test results taken from ChEMBL document CHEMBL3580659, “One-pot multicomponent synthesis of indole incorporated thiazolylcoumarins and their antibacterial, anticancer and DNA cleavage studies” (2015).

Key:
Format in all cases: functional
[1] = system: LOX IMVI; experiment: Cytotoxicity against human LOXIMVI cells assessed as cell growth level at 100 uM after 48 hrs by sulforhodamine B assay
[2] = system: OVCAR-3; experiment: Cytotoxicity against human OVCAR3 cells assessed as cell growth level at 100 uM after 48 hrs by sulforhodamine B assay
[3] = system: MDA-MB-231; experiment: Cytotoxicity against human MDA-MB-231/ATCC cells assessed as cell growth level at 100 uM after 48 hrs by sulforhodamine B assay
[4] = system: NCI-H522; experiment: Cytotoxicity against human NCI-H522 cells assessed as cell growth level at 10 nM after 48 hrs by sulforhodamine B assay
[5] = system: SF-295; experiment: Cytotoxicity against human SF295 cells assessed as cell growth level at 10 nM after 48 hrs by sulforhodamine B assay
[6] = system: MDA-MB-435; experiment: Cytotoxicity against human MDA-MB-435 cells assessed as cell growth level at 10 nM after 48 hrs by sulforhodamine B assay
[7] = system: IGROV-1; experiment: Cytotoxicity against human IGROV1 cells assessed as cell growth level at 10 nM after 48 hrs by sulforhodamine B assay
[8] = system: SK-OV-3; experiment: Cytotoxicity against human SKOV3 cells assessed as cell growth level at 10 nM after 48 hrs by sulforhodamine B assay
[9] = system: MOLT-4; experiment: Cytotoxicity against human MOLT4 cells assessed as cell growth level at 100 nM after 48 hrs by sulforhodamine B assay
[10] = system: HOP-62; experiment: Cytotoxicity against human HOP62 cells assessed as cell growth level at 100 nM after 48 hrs by sulforhodamine B assay
[11] = system: HCC 2998; experiment: Cytotoxicity against human HCC2998 cells assessed as cell growth level at 100 nM after 48 hrs by sulforhodamine B assay
[12] = system: OVCAR-8; experiment: Cytotoxicity against human OVCAR8 cells assessed as cell growth level at 100 nM after 48 hrs by sulforhodamine B assay
[13] = system: SK-OV-3; experiment: Cytotoxicity against human SKOV3 cells assessed as cell growth level at 100 nM after 48 hrs by sulforhodamine B assay
[14] = system: ACHN; experiment: Cytotoxicity against human ACHN cells assessed as cell growth level at 100 nM after 48 hrs by sulforhodamine B assay
[15] = system: T47D; experiment: Cytotoxicity against human T47D cells assessed as cell growth level at 100 nM after 48 hrs by sulforhodamine B assay
[16] = system: HT-29; experiment: Cytotoxicity against human HT-29 cells assessed as cell growth level at 1 uM after 48 hrs by sulforhodamine B assay
[17] = system: SW-620; experiment: Cytotoxicity against human SW620 cells assessed as cell growth level at 10 uM after 48 hrs by sulforhodamine B assay
[18] = system: SK-MEL-5; experiment: Cytotoxicity against human SK-MEL-5 cells assessed as cell growth level at 10 uM after 48 hrs by sulforhodamine B assay
[19] = system: DU-145; experiment: Cytotoxicity against human DU145 cells assessed as cell growth level at 10 uM after 48 hrs by sulforhodamine B assay
[20] = system: SK-MEL-2; experiment: Cytotoxicity against human SK-MEL-2 cells assessed as cell growth level at 1 uM after 48 hrs by sulforhodamine B assay
[21] = system: UACC-62; experiment: Cytotoxicity against human UACC62 cells assessed as cell growth level at 1 uM after 48 hrs by sulforhodamine B assay
[22] = system: OVCAR-4; experiment: Cytotoxicity against human OVCAR4 cells assessed as cell growth level at 1 uM after 48 hrs by sulforhodamine B assay
[23] = system: UO-31; experiment: Cytotoxicity against human UO31 cells assessed as cell growth level at 1 uM after 48 hrs by sulforhodamine B assay
[24] = system: MCF7; experiment: Cytotoxicity against human MCF7 cells assessed as cell growth level at 1 uM after 48 hrs by sulforhodamine B assay
[25] = system: BT-549; experiment: Cytotoxicity against human BT549 cells assessed as cell growth level at 1 uM after 48 hrs by sulforhodamine B assay
[26] = system: MDA-MB-468; experiment: Cytotoxicity against human MDA-MB-468 cells assessed as cell growth level at 1 uM after 48 hrs by sulforhodamine B assay
[27] = system: MDA-MB-231; experiment: Cytotoxicity against human MDA-MB-231/ATCC cells assessed as cell growth level at 10 uM after 48 hrs by sulforhodamine B assay
[28] = system: BT-549; experiment: Cytotoxicity against human BT549 cells assessed as cell growth level at 10 uM after 48 hrs by sulforhodamine B assay
[29] = system: MOLT-4; experiment: Cytotoxicity against human MOLT4 cells after 48 hrs by sulforhodamine B assay; conditions: MOLT-4, 48 h
[30] = system: SR; experiment: Cytotoxicity against human SR cells after 48 hrs by sulforhodamine B assay
[31] = system: SF-539; experiment: Cytotoxicity against human SF539 cells after 48 hrs by sulforhodamine B assay; conditions: SF-539, 48 h
[32] = system: MDA-MB-435; experiment: Cytotoxicity against human MDA-MB-435 cells after 48 hrs by sulforhodamine B assay; conditions: MDA-MB-435, 48 h
[33] = system: UACC-257; experiment: Cytotoxicity against human UACC257 cells after 48 hrs by sulforhodamine B assay; conditions: UACC-257, 48 h
[34] = system: SN12C; experiment: Cytotoxicity against human SN12C cells after 48 hrs by sulforhodamine B assay
[35] = system: UO-31; experiment: Cytotoxicity against human UO31 cells after 48 hrs by sulforhodamine B assay; conditions: UO-31, 48 h
[36] = system: DU-145; experiment: Cytotoxicity against human DU145 cells after 48 hrs by sulforhodamine B assay; conditions: DU-145, 48 h
[37] = read-out: LC50 (the source's name)
[38] = read-out: pLC50 (the source's name) (converted)

O=c1oc2ccccc2cc1-c1csc(N/N=C/c2c[nH]c3ccccc23)n1
Activity [1]: -45%
Activity [2]: -2%
Activity [3]: -3%
Activity [4]: 105%
Activity [5]: 93%
Activity [6]: 92%
Activity [7]: 108%
Activity [8]: 94%
Activity [9]: 97%
Activity [10]: 110%
Activity [11]: 97%
Activity [12]: 107%
Activity [13]: 90%
Activity [14]: 97%
Activity [15]: 96%
Activity [16]: 89%
Activity [17]: 17.5%
Activity [18]: 69.78%
Activity [19]: -36.09%
Activity [20]: 90%
Activity [21]: 69%
Activity [22]: 85%
Activity [23]: 46%
Activity [24]: 69%
Activity [25]: 58%
Activity [26]: 72%
Activity [27]: -37.04%
Activity [28]: -12.14%
GI50 ([29]; read-out: GI50): 0.4 µM
LC50 ([29]; read-out: LC50): > 100 µM
TGI ([29]; read-out: TGI): 3.27 µM
GI50 ([29]; read-out: pGI50 (converted)): 0.407 µM
LC50 ([29]; read-out: pLC50 (converted)): > 100 µM
TGI ([29]; read-out: pTGI (converted)): 3.24 µM
GI50 ([30]; read-out: GI50): 1.83 µM
LC50 ([30]; read-out: LC50): > 100 µM
TGI ([30]; read-out: TGI): 4.92 µM
GI50 ([30]; read-out: pGI50 (converted)): 1.82 µM
LC50 ([30]; read-out: pLC50 (converted)): > 100 µM
TGI ([30]; read-out: pTGI (converted)): 4.9 µM
GI50 ([31]; read-out: GI50): 1.58 µM
CC50 [31, 37]: 7.25 µM
TGI ([31]; read-out: TGI): 3.38 µM
GI50 ([31]; read-out: pGI50 (converted)): 1.58 µM
CC50 [31, 38]: 7.24 µM
TGI ([31]; read-out: pTGI (converted)): 3.39 µM
GI50 ([32]; read-out: GI50): 2.1 µM
CC50 [32, 37]: 25.2 µM
TGI ([32]; read-out: TGI): 5.47 µM
GI50 ([32]; read-out: pGI50 (converted)): 2.09 µM
CC50 [32, 38]: 25.1 µM
TGI ([32]; read-out: pTGI (converted)): 5.5 µM
GI50 ([33]; read-out: GI50): 2.15 µM
CC50 [33, 37]: > 100 µM
TGI ([33]; read-out: TGI): 5.63 µM
GI50 ([33]; read-out: pGI50 (converted)): 2.14 µM
CC50 [33, 38]: > 100 µM
TGI ([33]; read-out: pTGI (converted)): 5.62 µM
GI50 ([34]; read-out: GI50): 1.08 µM
CC50 [34, 37]: > 100 µM
TGI ([34]; read-out: TGI): 3.96 µM
GI50 ([34]; read-out: pGI50 (converted)): 1.07 µM
CC50 [34, 38]: > 100 µM
TGI ([34]; read-out: pTGI (converted)): 3.98 µM
GI50 ([35]; read-out: GI50): 0.76 µM
CC50 [35, 37]: 5.47 µM
TGI ([35]; read-out: TGI): 2.23 µM
GI50 ([35]; read-out: pGI50 (converted)): 0.759 µM
CC50 [35, 38]: 5.5 µM
TGI ([35]; read-out: pTGI (converted)): 2.24 µM
GI50 ([36]; read-out: GI50): 1.8 µM
CC50 [36, 37]: > 100 µM
TGI ([36]; read-out: TGI): 4.27 µM
GI50 ([36]; read-out: pGI50 (converted)): 1.82 µM
CC50 [36, 38]: > 100 µM
TGI ([36]; read-out: pTGI (converted)): 4.27 µM
